Source: US20140106440A1, “ENHANCED ENZYMATIC CO2 CAPTURE TECHNIQUES ACCORDING TO SOLUTION PKA, TEMPERATURE AND/OR ENZYME CHARACTER” (CO2 SOLUTIONS INC., priority 2011, published 2014)
Values joined by “and” are separate entries in the source; they are usually repeats but may differ in a detail not shown here. Identical values can stand only once. Like-named read-outs stand apart in the source and are kept apart here.

Experiments:
[1] = forward reaction with CO2; 2 kmol/m^3 MDEA solution at 298 K; cited from earlier work
[2] = Second-order kinetic rate constant of the reaction between alkanolamine and CO2 (no enzyme); format: physicochemical
[3] = cited from earlier work

## O [OH^−, hydroxide]
[1]
  1st order rate constant: 23.8 s⁻¹
  2nd order rate constant: 8.35 m^3mol^−1s^−1

## CN(C)CCO [DMMEA, dimethylethanolamine]
[2]; amine concentration 1.0 kmol m^−3
  k2, second-order kinetic rate constant of the reaction between amine and CO2: 19.5 m^3 kmol^−1 s^−1
[2]; amine concentration 2.0 kmol m^−3
  k2, second-order kinetic rate constant of the reaction between amine and CO2: 18.8 m^3 kmol^−1 s^−1
[3]; Table 3
  pKa: 9.2
[3]; Table 4
  pKa: 9.2
[3]; Table 14
  pKa: 9.22

## CCN(CC)CCO [DEMEA, diethylethanolamine]
[2]
  k2, second-order kinetic rate constant of the reaction between amine and CO2: 33.0 m^3 kmol^−1 s^−1 and 35.5 m^3 kmol^−1 s^−1 and 33.1 m^3 kmol^−1 s^−1

## O [H2O, water]
[1]
  1st order rate constant: 0.026 s⁻¹

## CC(O)CN(CC(C)O)CC(C)O (stereo not shown) [TIPA, tri-isopropanolamine]
[2]
  k2, second-order kinetic rate constant of the reaction between amine and CO2: 1.02 m^3 kmol^−1 s^−1 and 0.79 m^3 kmol^−1 s^−1
